This is an account of results in patent publication US20010031865A1, “Substituted 3-phenyluracils” (priority 1991, published 2001).

Data set [1] has as its system undesirable broad-leaved plants and grasses. Kind of data set: Greenhouse herbicidal test, postemergence treatment. It is filed as in vivo. The conditions noted are these: for control of undesirable broad-leaved plants and grasses: postemergence use of 0.5 kg/ha, greenhouse. The procedure: The seeds of the test plants were sown separately according to species. For the purpose of the postemergence treatment, the test plants were grown in the test vessels themselves or were planted in the test vessels a few days beforehand. The active ingredients suspended or emulsified in water were not applied until a height of growth of from 3 to 15 cm, depending on the form of growth. The plants were kept at 10-25° C. or 20-35° C., according to species. The test periods extended over from 2 to 4 weeks. During this time, the plants were tended and their reaction to the individual treatments was evaluated. Rating was based on a scale from 0 to 100. 100 means no emergence of the plants or complete destruction of at least the above-ground parts and 0 means no damage on normal growth. The plants used in the greenhouse experiments consisted of the following species: [table]

Data set [2] deals with young, 4-leaved cotton plants of the Stoneville 825 variety. Kind of data set: Defoliation of young cotton plants (Use Example 1). It is filed as in vivo. The conditions noted are these: after 13 days. The procedure:
The comparative agent used was
A 6,7-dihydrodipyrido[1,2-alpha:2′, 1′-c]pyridilium as the dibromide monohydrate salt (common name: Diquat®).
The comparative agent was used in the form-of the preformulated commercial product.
The test plants used were young, 4-leaved cotton plants (without cotyledons) of the Stoneville 825 variety, which were grown under greenhouse conditions (relative humidity from 50 to 70%; day/night temperature 27/20° C.).
The amount of water applied was equivalent to […]. After 13 days, the number of dropped leaves and the degree of defoliation in % were determined.

Setting [3] is: converted application rate 0.10 kg/ha.

The melting point is the temperature of the solid-liquid transition.

In the case of `Cn1c(C(F)(F)F)cc(=O)n(-c2ccc(Cl)c(C3OCCCO3)c2)c1=O` [compound 2.1, 3-[4-Chloro-3-(1,3-dioxan-2-yl)-phenyl]-2,4-dioxo-1-methyl-6-trifluoromethyl-1,2,3,4-tetrahydropyrimidine], in data set [1], the “control of undesirable broad-leaved plants and grasses” value is “very readily controlled”. Regarding `CCOC(=O)N/N=C/c1cc(-n2c(=O)cc(C(F)(F)F)n(C)c2=O)ccc1Cl` [compound 1.91, 3-(4-Chloro-3-ethoxycarbonylhydrazonomethylphenyl)-2,4-dioxo-1-methyl-6-trifluoromethyl-1,2,3,4-tetrahydropyrimidine], the melting point was in the range of 219 to 221 °C. Turning to `COC(=O)/C(C#N)=C/c1cc(-n2c(=O)cc(C(F)(F)F)n(C)c2=O)ccc1Cl` [compound 1.22, 3-[4-Chloro-3-(2-cyano-2-methoxycarbonylethenyl)-phenyl]-2,4-dioxo-1-methyl-6-trifluoromethyl-1,2,3,4-tetrahydropyrimidine], the “control of undesirable broad-leaved plants and grasses” value in data set [1] is recorded as “very readily controlled”. Same read-out and setting: the same measure for `CCCCOC(=O)/C(Cl)=C/c1cc(-n2c(=O)cc(C(F)(F)F)n(C)c2=O)ccc1Cl` [compound 1.15, 3-[4-Chloro-3-(2-chloro-2-butoxycarbonylethen-1-yl)-phenyl]-2,4-dioxo-1-methyl-6-trifluoromethyl-1,2,3,4-tetrahydropyrimidine]: “very readily controlled”. In data set [2] (setting [3]), `c1cc[n+]2c(c1)-c1cccc[n+]1CC2` [A, 6,7-dihydrodipyrido[1,2-alpha:2′, 1′-c]pyridilium, reference compound] displayed a Defoliation of 0%. For the compound `CCO/N=C/c1cc(-n2c(=O)cc(C(F)(F)F)[nH]c2=O)ccc1Cl` [compound 1.4, 3-[4-Chloro-3-(ethoximinomethyl)-phenyl]-2,4-dioxo-6-trifluoromethyl-1,2,3,4-tetrahydropyrimidine], the melting point lay within 221 to 223 °C.

On to `CCO/N=C/c1cc(-n2c(=O)cc(C(F)(F)F)n(C)c2=O)ccc1Cl` [compound 1.5, 3-[4-Chloro-3-(ethoximinomethyl)-phenyl]-2,4-dioxo-1-methyl-6-trifluoromethyl-1,2,3,4-tetrahydropyrimidine], for which the melting point lay in the range of 132 to 134 °C. The “control of undesirable broad-leaved plants and grasses” value in data set [1] is “very readily controlled”.

Turning to `Cn1c(C(F)(F)F)cc(=O)n(-c2ccc(Cl)c(C=O)c2)c1=O` [compound 1.1, 3-(4-Chloro-3-formylphenyl)-2,4-dioxo-1-methyl-6-trifluoromethyl-1,2,3,4-tetrahydropyrimidine], in data set [1], the “control of undesirable broad-leaved plants and grasses” value is “very readily controlled”.

For `COC(=O)/C(Cl)=C/c1cc(-n2c(OC)nc(C(F)(F)F)cc2=O)ccc1Cl` [compound 3.1, 3-[4-Chloro-3-(2-chloro-2-methoxycarbonylethenyl)-phenyl]-2-methoxy-4-oxo-6-trifluoromethyl-3,4-dihydro-pyrimidine], the “control of undesirable broad-leaved plants” value in data set [1] (postemergence method, application rates of 0.06 and 0.03 kg/ha) is reported as “very readily controlled”. The Defoliation in data set [2] (converted application rate 0.05 kg/ha) is listed as 53%; in data set [2] (setting [3]), 73%.
